# Read-outs that look alike come from different tables or passages of the source.
# How the values were obtained:
# [1] = cited from earlier work
# 2′-deoxyguanosine (dG) [2] = experiment: 8OHdG produced from dG with test substance and coexisting bisphenol A, standing or UV (Example 9); type: biochemical; conditions: for 8OHdG concentration, 90 Minutes' standing: ultrapure water 0.21; for 8OHdG concentration, 90 Minutes' UV irradiation: ultrapure water 0.64
# Procedure: 170 μl portions of ultrapure water and predetermined concentrations of vitamin C (VC), vitamin E (VE), and glucose (Glu) as test substance were added to each well of two […] plastic plates and, as additional solution, 20 μl of ultrapure water or predetermined concentration of bisphenol A (BPA) were injected into each well.
# 2′-deoxyguanosine (dG) [3] = experiment: 8OHdG produced from added dG, standing at room temperature or UV irradiation (Examples 1-7); conditions: for 8OHdG concentration, 90 Minutes' UV irradiation: ultrapure water 0.529; for concentration at which oxidation injury activity due to UV light is elevated (harmfulness increased): Example 1, 90 minutes UV; for evaluation in words: oxidation induction or antioxidant ability toward dG: conclusions of Examples 2-7;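 as to all read-outs here: Cell-free test: dG in test solution, held at room temperature or exposed to 254 nm UV, then 8OHdG quantified by HPLC with electrochemical detection, compared against dG in ultrapure water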
# Procedure: Separately, the amount of 8OHdG after an ultrapure water solution of dG is left to stand under the same conditions as above for a predetermined time is measured (this value is defined as B). If A is greater than B, the test substance is evaluated to have oxidation induction ability and conversely if A is smaller than B, the test substance is evaluated to have antioxidant ability. In either case, it is judged that the greater the difference is, the greater degree of oxidation induction ability or antioxidant capability the test substance has.
# Then, 20 μl of 200 μg/ml dG (dissolved in ultrapure water) was added to each well and one of the plates was left to stand as it was at room temperature for 90 minutes and the other plate was irradiated with UV light (254 nm, 860 μW/cm^2) for 90 minutes in a UV light irradiation box. […] Subsequently, nucleosides in the both were quantified by use of the UV light absorption analyzer connected to the HPLC and the electrochemical detector.
# Solutions of predetermined concentrations of vitamin C (VC), vitamin E (VE), catechin (Cate) and tannic acid (Tan) were prepared and 180 μl portions were injected into each well of two 99-well plastic plates. Then, 20 μl of 200 μg/ml dG (dissolved in ultrapure water) was added to each well and one of the plates was left to stand as it was at room temperature for 90 minutes and the other plate was irradiated with UV light (254 nm, 860 μW/cm^2) for 90 minutes in a UV light irradiation box.
# Then, 20 μl of 200 μg/ml dG (dissolved in ultrapure water) was added to each well and one of the plates was left to stand as it was at room temperature for 90 minutes and another plate was left to stand similarly at room temperature for 24 hours. The remaining three plates were irradiated with UV light (254 nm, 860 μW/cm^2) for 60 minutes, 90 minutes and 120 minutes, respectively, in a UV light irradiation box.
# Solutions of predetermined concentrations of glucose (Glu), raffinose (Raffi) and sucrose (Suc) were prepared and 180 μl portions thereof were injected into each well of four 99-well plastic plates. Then, 20 μl of 200 μg/ml dG (dissolved in ultrapure water) was added to each well and one of the plates was left to stand as it was at room temperature for 90 minutes. The remaining three plates were irradiated with UV light (254 nm, 860 μW/cm^2) for 60 minutes, 90 minutes and 120 minutes, respectively, in a UV light irradiation box.
# Then, 20 μl of 200 μg/ml dG (dissolved in ultrapure water) was added to each well and one of the plates was left to stand as it was at room temperature for 90 minutes and the other plate was irradiated with UV light (254 nm, 860 μW/cm^2) for 90 minutes in a UV light irradiation box.
# Solutions of various concentrations of uric acid (dissolving fluid: distilled water+0.025% FBS) were prepared and 180 μl portions thereof were injected into each well of two 99-well plastic plates. Then, 20 μl of 200 μg/ml dG (dissolved in ultrapure water) was added to each well and one of the plates was left to stand as it was at room temperature for 90 minutes and the other plate was irradiated with UV light (254 nm, 860 μW/cm^2) for 90 minutes in a UV light irradiation box.
# 2′-deoxyguanosine (dG) [4] = experiment: 8OHdG produced from dG in presence of potassium bromate as active oxygen generator (Example 8); type: biochemical; conditions: with KBrO3, ultrapure water 2.699
# 2′-deoxyguanosine (dG) [5] = conditions: KBrO3 30 minutes; for dG: pure water ctrl 1.067; for 8OHdG/dG × 10^−3: pure water ctrl 3.542; for 8OHdG × 10^−3: pure water ctrl 3.779; for Relative initial magnification: pure water ctrl 13.47
# [6] = BPA 0.5 ppm added to ultrapure water
# [7] = BPA 5 ppm added to ultrapure water
# [8] = BPA 50 ppm added to ultrapure water
# [9] = 0.005 ppm, Table 1, ultrapure water 0.267
# [10] = 0.5 ppm, Table 1, ultrapure water 0.267
# [11] = 5 ppm, Table 1, ultrapure water 0.267
# [12] = 5%, Table 3, ultrapure water 0.382
# [13] = 20%, Table 3, ultrapure water 0.382
smiles,measurement,setting,value
"CC(C)(c1ccc(O)cc1)c1ccc(O)cc1 [BPA, bisphenol A]",Acceptable uptake amount,[1]; common in every country,0.05 mg/kg/day
same,"8OHdG concentration, 90 Minutes' standing",2′-deoxyguanosine (dG) [2]; [6],0.19 ng/mL
same,"8OHdG concentration, 90 Minutes' UV irradiation",2′-deoxyguanosine (dG) [2]; [6],2.09 ng/mL
same,"8OHdG concentration, 90 Minutes' standing",2′-deoxyguanosine (dG) [2]; [7],0.31 ng/mL
same,"8OHdG concentration, 90 Minutes' UV irradiation",2′-deoxyguanosine (dG) [2]; [7],6.19 ng/mL
same,"8OHdG concentration, 90 Minutes' standing",2′-deoxyguanosine (dG) [2]; [8],0.22 ng/mL
same,"8OHdG concentration, 90 Minutes' UV irradiation",2′-deoxyguanosine (dG) [2]; [8],11.58 ng/mL
same,effect on 8OHdG with BPA and UV light irradiation,2′-deoxyguanosine (dG) [2]; Example 9,increases depending on concentration
same,"8OHdG concentration, 90 Minutes' UV irradiation","2′-deoxyguanosine (dG) [3]; 0.0005 ppm, Table 1",0.689 ng/mL
same,"8OHdG concentration, 90 Minutes' standing",2′-deoxyguanosine (dG) [3]; [9],0.315 ng/mL
same,"8OHdG concentration, 90 Minutes' UV irradiation","2′-deoxyguanosine (dG) [3]; 0.005 ppm, Table 1",0.794 ng/mL
same,"8OHdG concentration, 90 Minutes' UV irradiation","2′-deoxyguanosine (dG) [3]; 0.05 ppm, Table 1",0.614 ng/mL
same,"8OHdG concentration, 90 Minutes' standing",2′-deoxyguanosine (dG) [3]; [10],0.231 ng/mL
same,"8OHdG concentration, 90 Minutes' UV irradiation","2′-deoxyguanosine (dG) [3]; 0.5 ppm, Table 1",1.736 ng/mL
same,"8OHdG concentration, 90 Minutes' standing",2′-deoxyguanosine (dG) [3]; [11],0.192 ng/mL
same,"8OHdG concentration, 90 Minutes' UV irradiation","2′-deoxyguanosine (dG) [3]; 5 ppm, Table 1",7.142 ng/mL
same,concentration at which oxidation injury activity due to UV light is elevated (harmfulness increased),2′-deoxyguanosine (dG) [3],≥ 0.5 ppm
"O=C([O-])CN(CCN(CC(=O)[O-])CC(=O)[O-])CC(=O)[O-].[Na+].[Na+].[Na+].[Na+] [EDTA, sodium ethylenediaminetetraacetate]","8OHdG concentration, 30 Minutes' standing",2′-deoxyguanosine (dG) [4]; 1 mM,0.784 ng/mL
same,dG,2′-deoxyguanosine (dG) [5]; 1 mM,0.997 VS
same,8OHdG/dG × 10^−3,2′-deoxyguanosine (dG) [5]; 1 mM,1.101 × 10^−3
same,8OHdG × 10^−3,2′-deoxyguanosine (dG) [5]; 1 mM,1.098 mVs
same,Relative initial magnification,2′-deoxyguanosine (dG) [5]; 1 mM,4.19 times
"OCC(O)CO [Gly, glycerol]","8OHdG concentration, 30 Minutes' standing",2′-deoxyguanosine (dG) [4]; 10%,1.123 ng/mL
same,dG,2′-deoxyguanosine (dG) [5]; 10%,1.044 VS
same,8OHdG/dG × 10^−3,2′-deoxyguanosine (dG) [5]; 10%,1.506 × 10^−3
same,8OHdG × 10^−3,2′-deoxyguanosine (dG) [5]; 10%,1.572 mVs
"CO [Meth, methanol]","8OHdG concentration, 30 Minutes' standing",2′-deoxyguanosine (dG) [4]; 1%,2.059 ng/mL
same,"8OHdG concentration, 30 Minutes' standing",2′-deoxyguanosine (dG) [4]; 2.5%,1.685 ng/mL
same,dG,2′-deoxyguanosine (dG) [5]; 1%,1.04 VS
same,8OHdG/dG × 10^−3,2′-deoxyguanosine (dG) [5]; 1%,2.771 × 10^−3
same,dG,2′-deoxyguanosine (dG) [5]; 5%,1.054 VS
same,8OHdG/dG × 10^−3,2′-deoxyguanosine (dG) [5]; 5%,2.238 × 10^−3
same,8OHdG × 10^−3,2′-deoxyguanosine (dG) [5]; 5%,2.359 mVs
same,"8OHdG concentration, UV irradiation 60 minutes","2′-deoxyguanosine (dG) [3]; 5%, Table 3, ultrapure water 0.231",0.181 ng/mL
same,"8OHdG concentration, Standing 24 hours",2′-deoxyguanosine (dG) [3]; [12],0.336 ng/mL
same,"8OHdG concentration, UV irradiation 90 minutes",2′-deoxyguanosine (dG) [3]; [12],0.209 ng/mL
same,"8OHdG concentration, UV irradiation 120 minutes","2′-deoxyguanosine (dG) [3]; 5%, Table 3, ultrapure water 0.645",0.332 ng/mL
same,"8OHdG concentration, UV irradiation 60 minutes","2′-deoxyguanosine (dG) [3]; 20%, Table 3, ultrapure water 0.231",0.324 ng/mL
same,"8OHdG concentration, Standing 24 hours",2′-deoxyguanosine (dG) [3]; [13],0.274 ng/mL
same,"8OHdG concentration, UV irradiation 90 minutes",2′-deoxyguanosine (dG) [3]; [13],0.395 ng/mL
same,"8OHdG concentration, UV irradiation 120 minutes","2′-deoxyguanosine (dG) [3]; 20%, Table 3, ultrapure water 0.645",0.518 ng/mL
same,evaluation in words: oxidation induction or antioxidant ability toward dG,2′-deoxyguanosine (dG) [3],potent antioxidant ability
"Oc1c(Cl)c(Cl)c(Cl)c(Cl)c1Cl [PCP, pentachlorophenol]",safety concentration,[1]; reported,5 mg/kg
same,"8OHdG concentration, 90 Minutes' standing","2′-deoxyguanosine (dG) [3]; 0.0005 ppm, Table 1, ultrapure water 0.267",0.260 ng/mL
same,"8OHdG concentration, 90 Minutes' UV irradiation","2′-deoxyguanosine (dG) [3]; 0.0005 ppm, Table 1",0.585 ng/mL
same,"8OHdG concentration, 90 Minutes' standing",2′-deoxyguanosine (dG) [3]; [9],0.236 ng/mL
same,"8OHdG concentration, 90 Minutes' UV irradiation","2′-deoxyguanosine (dG) [3]; 0.005 ppm, Table 1",0.451 ng/mL
same,"8OHdG concentration, 90 Minutes' standing","2′-deoxyguanosine (dG) [3]; 0.05 ppm, Table 1, ultrapure water 0.267",0.285 ng/mL
same,"8OHdG concentration, 90 Minutes' UV irradiation","2′-deoxyguanosine (dG) [3]; 0.05 ppm, Table 1",0.431 ng/mL
same,"8OHdG concentration, 90 Minutes' standing",2′-deoxyguanosine (dG) [3]; [10],0.282 ng/mL
same,"8OHdG concentration, 90 Minutes' UV irradiation","2′-deoxyguanosine (dG) [3]; 0.5 ppm, Table 1",0.396 ng/mL
same,"8OHdG concentration, 90 Minutes' standing",2′-deoxyguanosine (dG) [3]; [11],0.340 ng/mL
same,"8OHdG concentration, 90 Minutes' UV irradiation","2′-deoxyguanosine (dG) [3]; 5 ppm, Table 1",5.730 ng/mL
same,concentration at which oxidation injury activity due to UV light is elevated (harmfulness increased),2′-deoxyguanosine (dG) [3],5 ppm
"OC[C@H]1O[C@H](OC[C@H]2O[C@H](O[C@]3(CO)O[C@H](CO)[C@@H](O)[C@@H]3O)[C@H](O)[C@@H](O)[C@@H]2O)[C@H](O)[C@@H](O)[C@H]1O [Raffi, raffinose]",dG,2′-deoxyguanosine (dG) [5]; 1 mg/ml,0.926 VS
same,8OHdG/dG × 10^−3,2′-deoxyguanosine (dG) [5]; 1 mg/ml,2.513 × 10^−3
same,8OHdG × 10^−3,2′-deoxyguanosine (dG) [5]; 1 mg/ml,2.327 mVs
same,Relative initial magnification,2′-deoxyguanosine (dG) [5]; 1 mg/ml,9.55 times
same,dG,2′-deoxyguanosine (dG) [5]; 10 mg/ml,1.045 VS
same,8OHdG/dG × 10^−3,2′-deoxyguanosine (dG) [5]; 10 mg/ml,3.137 × 10^−3
same,8OHdG × 10^−3,2′-deoxyguanosine (dG) [5]; 10 mg/ml,3.278 mVs
same,Relative initial magnification,2′-deoxyguanosine (dG) [5]; 10 mg/ml,11.93 times
same,"8OHdG concentration, 90 Minutes' standing","2′-deoxyguanosine (dG) [3]; 0.1 μg/ml, Table 4, ultrapure water 0.195",0.205 ng/mL
same,"8OHdG concentration, UV irradiation 60 minutes","2′-deoxyguanosine (dG) [3]; 0.1 μg/ml, Table 4, ultrapure water 0.392",0.375 ng/mL
same,"8OHdG concentration, UV irradiation 90 minutes","2′-deoxyguanosine (dG) [3]; 0.1 μg/ml, Table 4, ultrapure water 0.901",0.689 ng/mL
same,"8OHdG concentration, UV irradiation 120 minutes","2′-deoxyguanosine (dG) [3]; 0.1 μg/ml, Table 4, ultrapure water 1.183",1.127 ng/mL
same,"8OHdG concentration, 90 Minutes' standing","2′-deoxyguanosine (dG) [3]; 1 μg/ml, Table 4, ultrapure water 0.195",0.185 ng/mL
same,"8OHdG concentration, UV irradiation 60 minutes","2′-deoxyguanosine (dG) [3]; 1 μg/ml, Table 4, ultrapure water 0.392",0.304 ng/mL
same,"8OHdG concentration, UV irradiation 90 minutes","2′-deoxyguanosine (dG) [3]; 1 μg/ml, Table 4, ultrapure water 0.901",0.854 ng/mL
same,"8OHdG concentration, UV irradiation 120 minutes","2′-deoxyguanosine (dG) [3]; 1 μg/ml, Table 4, ultrapure water 1.183",1.049 ng/mL
same,"8OHdG concentration, 90 Minutes' standing","2′-deoxyguanosine (dG) [3]; 10 μg/ml, Table 4, ultrapure water 0.195",0.405 ng/mL
same,"8OHdG concentration, UV irradiation 60 minutes","2′-deoxyguanosine (dG) [3]; 10 μg/ml, Table 4, ultrapure water 0.392",0.281 ng/mL
same,"8OHdG concentration, UV irradiation 90 minutes","2′-deoxyguanosine (dG) [3]; 10 μg/ml, Table 4, ultrapure water 0.901",0.626 ng/mL
same,"8OHdG concentration, UV irradiation 120 minutes","2′-deoxyguanosine (dG) [3]; 10 μg/ml, Table 4, ultrapure water 1.183",1.314 ng/mL
same,"8OHdG concentration, 90 Minutes' standing","2′-deoxyguanosine (dG) [3]; 100 μg/ml, Table 4, ultrapure water 0.195",0.455 ng/mL
same,"8OHdG concentration, UV irradiation 60 minutes","2′-deoxyguanosine (dG) [3]; 100 μg/ml, Table 4, ultrapure water 0.392",0.158 ng/mL
same,"8OHdG concentration, UV irradiation 90 minutes","2′-deoxyguanosine (dG) [3]; 100 μg/ml, Table 4, ultrapure water 0.901",0.370 ng/mL
same,"8OHdG concentration, UV irradiation 120 minutes","2′-deoxyguanosine (dG) [3]; 100 μg/ml, Table 4, ultrapure water 1.183",0.503 ng/mL
same,"8OHdG concentration, 90 Minutes' standing","2′-deoxyguanosine (dG) [3]; 1 mg/ml, Table 4, ultrapure water 0.195",0.340 ng/mL
same,"8OHdG concentration, UV irradiation 60 minutes","2′-deoxyguanosine (dG) [3]; 1 mg/ml, Table 4, ultrapure water 0.392",0.115 ng/mL
same,"8OHdG concentration, UV irradiation 90 minutes","2′-deoxyguanosine (dG) [3]; 1 mg/ml, Table 4, ultrapure water 0.901",0.176 ng/mL
same,"8OHdG concentration, UV irradiation 120 minutes","2′-deoxyguanosine (dG) [3]; 1 mg/ml, Table 4, ultrapure water 1.183",0.240 ng/mL
same,concentration at which antioxidant ability is effective,2′-deoxyguanosine (dG) [3]; Example 4,≥ 10 µg/mL
same,evaluation in words: oxidation induction or antioxidant ability toward dG,2′-deoxyguanosine (dG) [3],Glu>Raffi≈Suc
